Earlier results as cited in US6629835B2, “Combinations of diterpene triepoxide lactones and ditepene lactones or triterpenes for synergistic inhibition of cyclooxygenase-2” (MetaProteomics, LLC, priority 2000, dated 2003).

Details: gastrointestinal disturbance, nausea and vomiting, hypotension, edema; cited from earlier work

CC(C)[C@]12O[C@H]1[C@@H]1O[C@]13[C@]1(O[C@H]1C[C@H]1C4=C(CC[C@@]13C)C(=O)OC4)[C@@H]2O [Triptolide]
Patients showing some type of side effects: Approximately 28%
